Reference: patent publication US20130040935A1, “CYCLIC KETO-ENOLS FOR THERAPY” (BAYER INTELLECTUAL PROPERTY GMBH, priority 2010, published 2013)
Like-named read-outs stand apart in the source and are kept apart here.

Columns and labels:
[1] = biological target: acetyl-CoA carboxylase 2 (ACC2) (Homo sapiens, UniProt O00763); assay: Human ACC2 enzyme assay, Assay A2 (HTRF ADP immunoassay);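 also: ADP generated by ACC2 quantified via competitive time-resolved FRET between europium cryptate anti-ADP antibody and d2-tagged ADP, enzyme kept in linear range near 0.6 ng/µl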
Chain of acetyl-CoA carboxylase 2 (ACC2) (O00763 39-2458 limits assumed): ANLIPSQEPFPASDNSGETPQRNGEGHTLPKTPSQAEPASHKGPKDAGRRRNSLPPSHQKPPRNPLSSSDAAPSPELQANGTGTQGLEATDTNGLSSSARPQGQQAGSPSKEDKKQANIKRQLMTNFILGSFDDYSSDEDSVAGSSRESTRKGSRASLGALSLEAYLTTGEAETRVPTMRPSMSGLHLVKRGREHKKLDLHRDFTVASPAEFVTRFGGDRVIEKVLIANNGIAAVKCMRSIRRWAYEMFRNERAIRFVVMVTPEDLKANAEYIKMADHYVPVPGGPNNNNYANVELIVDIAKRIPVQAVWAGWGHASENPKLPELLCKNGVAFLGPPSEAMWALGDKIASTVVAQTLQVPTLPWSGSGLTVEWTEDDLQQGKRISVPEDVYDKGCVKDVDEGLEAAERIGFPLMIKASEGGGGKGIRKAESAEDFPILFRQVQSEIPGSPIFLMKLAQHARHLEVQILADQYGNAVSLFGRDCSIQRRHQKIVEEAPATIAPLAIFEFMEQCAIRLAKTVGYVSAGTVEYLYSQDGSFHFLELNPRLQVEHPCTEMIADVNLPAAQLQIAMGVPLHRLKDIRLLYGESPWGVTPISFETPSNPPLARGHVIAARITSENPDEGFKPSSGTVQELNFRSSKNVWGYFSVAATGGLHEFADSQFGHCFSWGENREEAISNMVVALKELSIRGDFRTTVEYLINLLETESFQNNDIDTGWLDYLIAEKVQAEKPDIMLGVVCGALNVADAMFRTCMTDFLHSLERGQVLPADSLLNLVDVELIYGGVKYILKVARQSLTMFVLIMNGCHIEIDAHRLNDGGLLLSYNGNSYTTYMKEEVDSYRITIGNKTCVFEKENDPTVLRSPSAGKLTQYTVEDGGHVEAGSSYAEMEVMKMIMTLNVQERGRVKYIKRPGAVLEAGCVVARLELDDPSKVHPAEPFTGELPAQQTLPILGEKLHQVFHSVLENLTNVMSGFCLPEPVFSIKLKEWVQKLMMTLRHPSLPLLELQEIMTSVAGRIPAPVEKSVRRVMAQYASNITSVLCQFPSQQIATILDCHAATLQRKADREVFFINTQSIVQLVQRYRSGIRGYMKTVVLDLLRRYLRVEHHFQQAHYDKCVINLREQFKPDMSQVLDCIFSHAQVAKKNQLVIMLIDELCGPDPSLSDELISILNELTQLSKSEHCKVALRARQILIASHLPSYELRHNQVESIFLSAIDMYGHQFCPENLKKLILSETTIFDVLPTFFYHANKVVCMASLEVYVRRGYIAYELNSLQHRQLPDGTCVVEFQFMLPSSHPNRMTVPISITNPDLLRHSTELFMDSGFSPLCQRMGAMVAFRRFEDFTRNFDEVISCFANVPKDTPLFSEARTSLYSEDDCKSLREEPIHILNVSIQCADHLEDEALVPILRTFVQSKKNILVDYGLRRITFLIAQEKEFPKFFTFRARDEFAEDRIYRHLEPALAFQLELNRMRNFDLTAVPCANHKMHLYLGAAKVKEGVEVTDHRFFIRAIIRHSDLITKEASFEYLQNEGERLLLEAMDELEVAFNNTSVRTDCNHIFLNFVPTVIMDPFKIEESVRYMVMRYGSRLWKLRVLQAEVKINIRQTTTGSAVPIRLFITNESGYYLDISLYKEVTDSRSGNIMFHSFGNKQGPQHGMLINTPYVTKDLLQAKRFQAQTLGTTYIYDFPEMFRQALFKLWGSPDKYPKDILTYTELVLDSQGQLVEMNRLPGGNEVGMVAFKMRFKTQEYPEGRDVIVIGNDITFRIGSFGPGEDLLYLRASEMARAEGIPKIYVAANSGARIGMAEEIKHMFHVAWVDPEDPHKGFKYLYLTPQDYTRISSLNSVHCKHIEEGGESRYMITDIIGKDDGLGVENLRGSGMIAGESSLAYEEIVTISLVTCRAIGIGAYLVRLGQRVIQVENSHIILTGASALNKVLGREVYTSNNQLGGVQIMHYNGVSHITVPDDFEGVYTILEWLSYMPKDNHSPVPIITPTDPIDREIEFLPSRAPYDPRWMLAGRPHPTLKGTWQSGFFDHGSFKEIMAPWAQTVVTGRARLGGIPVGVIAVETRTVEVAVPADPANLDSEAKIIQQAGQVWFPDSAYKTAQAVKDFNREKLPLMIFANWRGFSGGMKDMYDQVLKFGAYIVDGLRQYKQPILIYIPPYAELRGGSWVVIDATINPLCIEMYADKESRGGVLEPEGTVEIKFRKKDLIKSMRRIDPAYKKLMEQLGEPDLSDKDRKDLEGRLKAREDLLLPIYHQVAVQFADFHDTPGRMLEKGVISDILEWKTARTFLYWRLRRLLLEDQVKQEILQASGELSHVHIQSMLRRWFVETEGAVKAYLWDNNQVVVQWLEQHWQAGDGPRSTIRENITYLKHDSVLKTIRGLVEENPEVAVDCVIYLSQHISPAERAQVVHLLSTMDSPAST

[2] = system: MCF7; assay: Cell proliferation assay (CellTiter-Glo, 96 h), MCF7; assay type: cell-based; details: Homo sapiens, MCF7; Table 7; 96-hour incubation
In short: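 Seeding: 2000-5000 cells/well; overnight, 37° C. Separate t=0 plate read. Compound diluted in growth medium, 96 h, 37° C. Readout: CellTiter-Glo luminescence, t=0 subtracted; % growth inhibition vs control.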

[3] = biological target: recombinant human ACC1 (Homo sapiens, UniProt Q13085); assay: Human ACC1 enzyme assay, Assay A1 (HTRF ADP immunoassay);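 also: ADP generated by the enzyme quantified via competitive time-resolved FRET, read as europium cryptate to d2 energy transfer after 1 h at 22 °C with labelled ADP tracer and anti-ADP antibody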
[4] = biological target: T1, human ACC1 (acetyl-coenzyme A carboxylase alpha transcript variant 1) (Homo sapiens, UniProt Q13085); assay: Human ACC1 enzyme assay, Assay B1 (ADP-Glo); assay type: biochemical
T1 construct: FLAG (C); made in house; host or cells: baculovirus-infected insect cells (Hi5)
Procedure: Essentially, the enzyme activity is measured by quantifying the adenosine diphosphate (ADP) formed as a byproduct of the enzyme reactions using the ADP-Glo™ detection system from Promega. In this test, initially the adenosine triphosphate (ATP) not consumed in the enzyme reaction is converted quantitatively with an adenylate cyclase (“ADP-GLO reagent”) into cAMP, the adenylate cyclase is then stopped and (“kinase detection reagent”) the ADP formed is subsequently converted into ATP, which is converted in a luciferase-based reaction into a glow luminescence signal.
The concentration of the hACC1 was adapted to the respective activity of the enzyme and adjusted such that the assay operated in the linear range. […] The amount of light emitted was taken as a measure for the amount of ADP formed and thus for the enzyme activity of the hACC1.

[5] = biological target: human ACC2 (acetyl-coenzyme A carboxylase 2) (Homo sapiens, UniProt O00763); assay: Human ACC2 enzyme assay, Assay B2 (ADP-Glo);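 also: human ACC2 activity read as ADP product, detected by luciferase glow luminescence after residual ATP removal, enzyme near 2 ng/µl in linear range, detection steps at 22 °C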
Chain of human ACC2 (acetyl-coenzyme A carboxylase 2) (O00763 27-2458 limits assumed): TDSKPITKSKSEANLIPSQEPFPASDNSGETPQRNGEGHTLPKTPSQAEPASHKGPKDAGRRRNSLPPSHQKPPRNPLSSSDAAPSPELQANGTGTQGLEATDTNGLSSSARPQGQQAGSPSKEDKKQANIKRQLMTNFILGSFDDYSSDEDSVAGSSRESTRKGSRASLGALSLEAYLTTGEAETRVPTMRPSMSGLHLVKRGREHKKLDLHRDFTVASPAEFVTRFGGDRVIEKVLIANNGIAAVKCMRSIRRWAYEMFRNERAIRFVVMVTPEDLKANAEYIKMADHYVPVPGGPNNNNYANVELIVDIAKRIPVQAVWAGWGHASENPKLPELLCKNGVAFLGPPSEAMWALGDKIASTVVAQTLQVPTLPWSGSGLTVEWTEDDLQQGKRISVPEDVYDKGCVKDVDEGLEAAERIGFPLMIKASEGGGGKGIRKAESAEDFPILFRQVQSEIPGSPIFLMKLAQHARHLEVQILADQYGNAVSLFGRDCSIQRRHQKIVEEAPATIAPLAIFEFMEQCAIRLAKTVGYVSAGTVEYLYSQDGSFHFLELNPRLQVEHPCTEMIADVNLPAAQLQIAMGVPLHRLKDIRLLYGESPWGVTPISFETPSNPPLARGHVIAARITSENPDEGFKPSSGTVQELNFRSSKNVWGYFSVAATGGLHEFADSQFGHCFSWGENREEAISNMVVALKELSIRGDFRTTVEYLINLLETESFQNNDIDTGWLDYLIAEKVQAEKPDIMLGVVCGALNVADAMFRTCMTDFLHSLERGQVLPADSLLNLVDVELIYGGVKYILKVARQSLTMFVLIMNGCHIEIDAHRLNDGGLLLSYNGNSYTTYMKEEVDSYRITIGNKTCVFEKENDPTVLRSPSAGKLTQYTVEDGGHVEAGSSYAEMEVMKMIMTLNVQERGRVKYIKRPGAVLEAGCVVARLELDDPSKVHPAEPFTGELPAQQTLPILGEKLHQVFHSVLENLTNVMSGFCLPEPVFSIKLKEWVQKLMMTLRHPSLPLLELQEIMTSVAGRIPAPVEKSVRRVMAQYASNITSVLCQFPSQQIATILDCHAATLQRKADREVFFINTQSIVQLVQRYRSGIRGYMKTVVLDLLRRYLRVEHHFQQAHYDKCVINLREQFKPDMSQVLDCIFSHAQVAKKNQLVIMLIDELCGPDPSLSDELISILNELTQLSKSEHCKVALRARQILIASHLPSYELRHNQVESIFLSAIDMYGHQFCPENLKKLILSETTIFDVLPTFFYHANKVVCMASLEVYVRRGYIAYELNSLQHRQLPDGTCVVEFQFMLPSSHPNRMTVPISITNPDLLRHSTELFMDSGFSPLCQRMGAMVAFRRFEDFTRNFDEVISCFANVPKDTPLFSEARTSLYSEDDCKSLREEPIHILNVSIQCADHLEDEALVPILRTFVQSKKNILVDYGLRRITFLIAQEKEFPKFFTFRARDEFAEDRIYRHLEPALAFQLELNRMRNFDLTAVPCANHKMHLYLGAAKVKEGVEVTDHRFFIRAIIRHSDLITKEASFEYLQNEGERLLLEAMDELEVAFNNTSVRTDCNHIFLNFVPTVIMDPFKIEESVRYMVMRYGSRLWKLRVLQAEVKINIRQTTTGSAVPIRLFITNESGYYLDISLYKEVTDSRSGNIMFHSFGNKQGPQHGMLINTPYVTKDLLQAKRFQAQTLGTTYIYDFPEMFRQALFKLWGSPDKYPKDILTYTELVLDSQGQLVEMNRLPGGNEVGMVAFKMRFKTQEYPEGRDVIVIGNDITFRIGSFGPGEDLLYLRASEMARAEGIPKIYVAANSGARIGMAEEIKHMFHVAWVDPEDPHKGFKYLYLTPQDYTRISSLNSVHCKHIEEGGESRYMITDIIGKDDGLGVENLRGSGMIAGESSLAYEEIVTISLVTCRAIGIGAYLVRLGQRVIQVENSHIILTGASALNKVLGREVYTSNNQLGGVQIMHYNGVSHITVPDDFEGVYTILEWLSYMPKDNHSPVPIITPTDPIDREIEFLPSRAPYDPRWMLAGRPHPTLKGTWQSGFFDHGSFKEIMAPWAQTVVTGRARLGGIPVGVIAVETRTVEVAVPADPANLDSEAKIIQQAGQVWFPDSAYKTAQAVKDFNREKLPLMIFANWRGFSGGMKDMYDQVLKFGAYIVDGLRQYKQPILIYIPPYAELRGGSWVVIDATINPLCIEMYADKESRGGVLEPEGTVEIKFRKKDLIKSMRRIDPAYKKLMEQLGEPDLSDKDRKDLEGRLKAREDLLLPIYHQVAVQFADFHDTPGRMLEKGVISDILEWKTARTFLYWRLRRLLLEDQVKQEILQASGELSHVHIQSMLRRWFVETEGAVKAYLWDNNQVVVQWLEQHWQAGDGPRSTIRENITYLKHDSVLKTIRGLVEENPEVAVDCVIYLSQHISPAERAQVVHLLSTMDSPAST

[6] = Assay B1, read-out: ACC 1 (=B1) IC50

IC50 [4, 6] [nM] | Structure (SMILES) | IC50 [1] [nM] | IC50 [2] [nM] | IC50 [3] [nM] | IC50 [5] [nM] | IC50 [4] [nM]
99 | Cc1cc(F)c(-c2ccc(Cl)c(F)c2)cc1C1=C(O)C2(CCC(C(F)(F)F)CC2)NC1=O (mixture of isomers) [1-94, 3-(4′-Chloro-3′,6-difluoro-4-methylbiphenyl-3-yl)-4-hydroxy-8-(trifluoromethyl)-1-azaspiro[4.5]dec-3-en-2-one] | 873 | 85 | 73 | 2030 | –
– | Cc1cc(F)c(-c2ccc(Cl)cc2)cc1C1=C(O)C2(CCC(C(F)(F)F)CC2)NC1=O (mixture of isomers) [1-100, 3-(4′-Chloro-6-fluoro-4-methylbiphenyl-3-yl)-4-hydroxy-8-(trifluoromethyl)-1-azaspiro[4.5]dec-3-en-2-one] | 988 | 127 | 91 | 2470 | 96
– | Cc1c(F)cc(-c2ccc(Cl)cc2)cc1C1=C(O)[C@]2(CC[C@H](C(F)(F)F)CC2)NC1=O [1-91, (5s,8s)-3-(4′-Chloro 5 fluoro 4-methylbiphenyl-3-yl)-4-hydroxy-8-(trifluoromethyl)-1-azaspiro[4.5]dec-3-en-2-one] | 5010 | – | 302 | 4990 | 266
– | O=C1N[C@]2(CC[C@@H](C(F)(F)F)CC2)C(O)=C1c1cc(-c2ccc(Cl)c(F)c2)ccc1Cl [1-92, (5s,8s)-3-(4,4′-Dichloro-3′-fluorobiphenyl-3-yl)-4-hydroxy-8-(trifluoromethyl)-1-azaspiro[4.5]dec-3-en-2-one] | 1450 | – | 226 | 1660 | 72
– | Cc1ccc(-c2ccc(Cl)c(F)c2)c(C)c1C1=C(O)[C@]2(CC[C@H](C(F)(F)F)CC2)NC1=O [1-93, (5s,8s)-3-(4′-Chloro-3′-fluoro-2,4-dimethylbiphenyl-3-yl)-4-hydroxy-8-(trifluoromethyl)-1-azaspiro[4.5]dec-3-en-2-one] | 876 | 78 | 301 | 4010 | 217
383 | Cc1ccc(-c2ccc(Cl)cc2)c(C)c1C1=C(O)[C@]2(CC[C@H](C(F)(F)F)CC2)NC1=O [1-95, (5s,8s)-3-(4′-Chloro-2,4-dimethylbiphenyl-3-yl)-4-hydroxy-8-(trifluoromethyl)-1-azaspiro[4.5]dec-3-en-2-one] | 393 | 88 | 378 | 2410 | –
238 | Cc1c(F)cc(-c2ccc(F)c(F)c2)cc1C1=C(O)[C@]2(CC[C@H](C(F)(F)F)CC2)NC1=O [1-96, (5s,8s)-4-Hydroxy-8-(trifluoromethyl)-3-(3′,4′,5-trifluoro-4-methylbiphenyl-3-yl)-1-azaspiro[4.5]dec-3-en-2-one] | > 20000 | 108 | 416 | > 20000 | –
– | Cc1cc(C)c(-c2ccc(Cl)cc2)cc1C1=C(O)C2(CCC(C(F)(F)F)CC2)NC1=O (stereo not drawn) [1-97, 3-(4′-Chloro-4,6-dimethylbiphenyl-3-yl)-4-hydroxy-8 (trifluoromethyl)-1-azaspiro[4.5]dec-3-en-2-one] | 138 | 155 | 1940 | 269 | 1110
– | Cc1cc(C)c(-c2ccc(Cl)cc2)cc1C1=C(O)[C@]2(CC[C@H](C(F)(F)F)CC2)NC1=O [1-98, (5s,8s)-3-(4′-Chloro-4,6-dimethylbiphenyl-3-yl)-4-hydroxy-8-(trifluoromethyl)-1-azaspiro[4.5]dec-3-en-2-one] | 204 | 99 | 2190 | 174 | 1040
– | O=C1N[C@]2(CC[C@@H](C(F)(F)F)CC2)C(O)=C1c1cc(-c2ccc(F)c(F)c2)ccc1Cl [1-99, (5s,8s)-3-(4 Chloro-3′,4′-difluorobiphenyl-3-yl)-4-hydroxy-8-(trifluoromethyl)-1-azaspiro[4.5]dec-3-en-2-one] | 6670 | 120 | 327 | 11300 | 207
– | Cc1ccc(-c2ccc(F)c(F)c2)c(C)c1C1=C(O)[C@]2(CC[C@H](C(F)(F)F)CC2)NC1=O [1-101, (5s,8s)-3-(3′,4′-Difluoro-2,4-dimethylbiphenyl-3-yl)-4-hydroxy-8-(trifluoromethyl)-1-azaspiro[4.5]dec-3-en-2-one] | 6070 | 272 | 460 | 10500 | 650
– | Cc1c(F)cc(-c2ccc(Cl)c(F)c2)cc1C1=C(O)[C@]2(CC[C@H](C(F)(F)F)CC2)NC1=O [1-102, (5s,8s)-3-(4′-Chloro-3′,5-difluoro-4-methylbiphenyl-3-yl)-4-hydroxy-8-(trifluoromethyl)-1-azaspiro[4.5]dec-3-en-2-one] | 2950 | 79 | 214 | 3820 | 243
– | CO[C@H]1CC[C@]2(CC1)NC(=O)C(c1cc(-c3ccc(Cl)c(F)c3)ccc1Cl)=C2O [1-103, (5s,8s)-3-(4,4′-Dichloro-3′-fluorobiphenyl-3-yl)-4-hydroxy-8-methoxy-1-azaspiro[4.5]dec-3-en-2-one] | 1180 | 119 | 151 | 4260 | 102
– | CO[C@H]1CC[C@]2(CC1)NC(=O)C(c1cc(-c3ccc(F)c(F)c3)ccc1Cl)=C2O [1-104, (5s,8s)-3-(4 Chloro-3′,4′-difluorobiphenyl-3-yl)-4-hydroxy-8-methoxy-1-azaspiro[4.5]dec-3-en-2-one] | 17900 | 455 | 329 | > 20000 | 270
– | CO[C@H]1CC[C@]2(CC1)NC(=O)C(c1cc(-c3ccc(Cl)c(F)c3)cc(F)c1C)=C2O [1-105, (5s,8s)-3-(4′-Chloro-3′,5-difluoro-4-methylbiphenyl-3-yl)-4-hydroxy-8-methoxy-1-azaspiro[4.5]dec-3-en-2-one] | 5560 | 106 | 360 | 8940 | 165
– | CO[C@H]1CC[C@]2(CC1)NC(=O)C(c1cc(-c3ccc(Cl)cc3)cc(F)c1C)=C2O [1-106, (5s,8s)-3-(4′-Chloro 5 fluoro 4-methylbiphenyl-3-yl)-4-hydroxy-8-methoxy-1-azaspiro[4.5]dec-3-en-2-one] | 4360 | 155 | 439 | 5850 | 207
– | CO[C@H]1CC[C@]2(CC1)NC(=O)C(c1cc(-c3ccc(F)c(F)c3)cc(F)c1C)=C2O [1-107, (5s,8s)-4-Hydroxy-8-methoxy-3-(3′,4′,5-trifluoro-4-methylbiphenyl-3-yl)-1-azaspiro[4.5]dec-3-en 2-one] | > 20000 | 267 | 804 | > 20000 | 376
– | CO[C@H]1CC[C@]2(CC1)NC(=O)C(c1cc(-c3ccc(Cl)c(F)c3)c(Cl)cc1C)=C2O [1-108, (5s,8s)-3-(4′,6-Dichloro-3′-fluoro-4-methylbiphenyl-3-yl)-4-hydroxy-8-methoxy-1-azaspiro[4.5]dec-3-en-2-one] | 346 | 76 | 460 | 753 | 204
– | CO[C@H]1CC[C@]2(CC1)NC(=O)C(c1cc(-c3ccc(Cl)cc3)c(Cl)cc1C)=C2O [1-109, (5s,8s)-3-(4′,6-Dichloro-4-methylbiphenyl-3-yl)-4-hydroxy-8-methoxy-1-azaspiro[4.5]dec-3-en-2-one] | 103 | 37 | 800 | 394 | 293
80 | Cc1ccc(-c2ccc(Cl)c(F)c2)cc1C1=C(O)[C@]2(CC[C@H](C)CC2)NC1=O [1-110, (5s,8s)-3-(4′-Chloro-3′-fluoro-4-methylbiphenyl-3-yl)-4-hydroxy-8-methyl-1-azaspiro[4.5]dec-3-en-2-one] | 640 | 45 | 194 | 488 | –
126 | COC[C@H]1CC[C@]2(CC1)NC(=O)C(c1cc(-c3ccc(Cl)c(F)c3)ccc1C)=C2O [1-111, (5s,8s)-3-(4′-Chloro-3′-fluoro-4-methylbiphenyl-3-yl)-4-hydroxy-8-(methoxymethyl)-1-azaspiro[4.5]dec-3-en-2-one] | 592 | 194 | 177 | 1120 | –
– | COC[C@H]1CC[C@]2(CC1)NC(=O)C(c1cc(-c3ccc(Cl)c(F)c3)ccc1Cl)=C2O [1-113, (5s,8s)-3-(4,4′-Dichloro-3′-fluorobiphenyl-3-yl)-4-hydroxy-8-(methoxymethyl)-1-azaspiro[4.5]dec-3-en-2-one] | 1350 | 46 | 260 | 2710 | 101
– | O=C1NC2(CCCCC2)C(O)=C1c1cc(-c2ccc(Cl)cc2)ccc1Cl [1-140, 3-(4,4′-Dichlorobiphenyl-3-yl)-4-hydroxy-1-azaspiro[4.5]dec-3-en-2-one] | 1520 | 73 | 323 | – | –
– | Cc1ccc(-c2ccc(F)c(F)c2)cc1C1=C(O)[C@]2(CC[C@H](C)CC2)NC1=O [1-145, (5s,8s)-3-(3′,4′-Difluoro-4-methylbiphenyl-3-yl)-4-hydroxy-8-methyl-1-azaspiro[4.5]dec-3-en-2-one] | 3310 | 273 | 194 | – | –
